According to patent publication US20100292289A1 (priority 2007, published 2010):

What was measured:
Format in all cases: cell-based
CB1 receptor [1] = biological target: T1, CB1 receptor (Homo sapiens, UniProt P21554); experiment: FLIPR calcium flux assay, agonist format, CB1; conditions: Emax of reference agonist CP-55,940 as 100%; for % Activation Agonist CB1: 1 μM
Experimental: (§1) A FLIPR assay was conducted to monitor agonist and antagonist selectivity for compounds of the invention against the CBI and GLP-1 receptors. Percentage activation and percentage inhibition values were determined for each compound on each of the GPCRs listed above. Agonist selectivity was determined upon initial addition of compounds followed by 10 minute incubation at 25° C. Following compound incubation, reference agonists were added at EC80 to determine percentage inhibition.
(§2) Agonist percentage activation determinations were obtained by assaying sample compounds and referencing the Emax control for each of the GPCRs profiled. Antagonist percentage inhibition determinations were obtained by assaying sample compounds and referencing the control EC80 wells for each of the GPCRs profiled. The protocol design is as follows:
(§3) Unless specified otherwise, all sample compounds were diluted in 100% anhydrous DMSO including all serial dilutions. Occasionally sample compounds were provided in a different solvent, in this case all master stock dilutions were performed in the specified diluent. All control wells contained identical solvent final concentrations as sample compound wells.
(§4) Sample compounds were transferred from a master stock solution into a daughter plate that was used in the assay. Each sample compound was diluted into assay buffer (1×HBSS with 20 mM HEPES) at an appropriate concentration to obtain final concentrations.
(§5) All sample compounds were plated at 1 μM in duplicate for assaying against all GPCRs. Reference agonists were handled as mentioned above serving as assay control. These reference agonists were handled as described above for both EMax and EC80 control wells. Assay was read for 90 seconds using the FLIPRTETRA. (This assay run added sample compounds and reference agonist to respective rows.) At the completion of the first “Single Addition” assay run, assay plate was removed from the FLIPRTetra and placed at 25° C. for 10 minutes.
(§6) All plates were subjected to appropriate baseline corrections. Once baseline corrections were processed, maximum fluorescence values were exported and data manipulated to calculate percentage activation, percentage inhibition, Z′, EC50, and IC50. Percentage activation data was calculated using Emax as 100% control. Percentage inhibition was calculated using EC80 as 0% inhibition.

GLP-1 receptor [2] = biological target: T2, GLP-1 receptor (Homo sapiens, UniProt P43220); experiment: FLIPR calcium flux assay, agonist format, GLP-1; conditions: Emax of reference ligand Glucagon as 100%; for % Activation Agonist GLP-1: 1 μM
Experimental: as §1, §2, §3, §4, §5, §6

CB1 receptor [3] = biological target: T1, CB1 receptor; experiment: FLIPR calcium flux assay, antagonist format, CB1; conditions: reference agonist CP-55,940 at EC80 as 0% inhibition; for % Inhibition Antagonist CB1: 1 μM
Experimental: as §1, §2, §3, §4
(§7) Using the EC50 values determined previously, stimulated all pre-incubated sample compound and reference antagonist (if applicable) wells with EC80 of reference agonist. Read for 90 seconds using the FLIPRTETRA. (This assay added reference agonist to respective wells—then fluorescence measurements were collected to calculate percentage inhibition.)
as §6

GLP-1 receptor [4] = biological target: T2, GLP-1 receptor; experiment: FLIPR calcium flux assay, antagonist format, GLP-1; conditions: 1 μM, reference ligand Glucagon at EC80 as 0% inhibition; for inhibition at 1 µM: read-out: % Inhibition Antagonist GLP-1
Experimental: as §1, §2, §3, §4, §7, §6

T1 sequence (P21554 whole entry): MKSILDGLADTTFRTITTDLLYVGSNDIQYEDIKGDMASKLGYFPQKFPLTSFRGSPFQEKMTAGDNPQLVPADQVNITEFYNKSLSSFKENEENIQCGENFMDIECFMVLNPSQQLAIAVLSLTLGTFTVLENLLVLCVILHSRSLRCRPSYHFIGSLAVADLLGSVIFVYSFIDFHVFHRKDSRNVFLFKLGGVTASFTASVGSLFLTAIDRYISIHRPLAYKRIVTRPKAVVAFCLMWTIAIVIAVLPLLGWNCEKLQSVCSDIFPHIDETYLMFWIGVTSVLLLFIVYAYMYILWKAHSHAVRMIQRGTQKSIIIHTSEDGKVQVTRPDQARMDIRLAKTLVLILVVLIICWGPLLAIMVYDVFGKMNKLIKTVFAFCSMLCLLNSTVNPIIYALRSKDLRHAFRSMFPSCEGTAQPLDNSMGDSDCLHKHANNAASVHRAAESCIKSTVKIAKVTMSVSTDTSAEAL
T2 sequence (P43220 24-463): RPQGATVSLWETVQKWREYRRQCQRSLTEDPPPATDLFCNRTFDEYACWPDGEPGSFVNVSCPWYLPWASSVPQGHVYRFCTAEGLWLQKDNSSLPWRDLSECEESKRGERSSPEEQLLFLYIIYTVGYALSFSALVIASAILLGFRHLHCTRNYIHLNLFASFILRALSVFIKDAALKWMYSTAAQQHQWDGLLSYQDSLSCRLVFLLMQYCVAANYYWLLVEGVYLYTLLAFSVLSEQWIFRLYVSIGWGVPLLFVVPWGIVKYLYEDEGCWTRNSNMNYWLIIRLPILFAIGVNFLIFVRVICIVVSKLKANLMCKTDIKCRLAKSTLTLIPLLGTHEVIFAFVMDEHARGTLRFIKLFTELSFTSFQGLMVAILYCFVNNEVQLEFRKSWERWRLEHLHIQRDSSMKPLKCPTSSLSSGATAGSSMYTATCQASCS

Structure (SMILES): CC(C)Cc1cccc(C(C)C(=O)N(C)CC[C@H](Oc2ccc(C(F)(F)F)cc2)c2ccccc2)c1 (stereo partly shown) [Compound 35b]
- activation at 1 µM (CB1 receptor [1]): 1.1%
- activation at 1 µM (GLP-1 receptor [2]): 3.8%
- inhibition at 1 µM (CB1 receptor [3]): 38.9%
- inhibition at 1 µM (GLP-1 receptor [4]): 0.3%

Structure (SMILES): CC(C)Cc1ccc(C2(C(=O)N(C)CC[C@@H](Oc3ccc(C(F)(F)F)cc3)c3ccccc3)CCC2)cc1 [Compound 30a]
- % Activation Agonist CB1 (CB1 receptor [1]): 1.0%
- % Activation Agonist GLP-1 (GLP-1 receptor [2]): −3.7%
- % Inhibition Antagonist CB1 (CB1 receptor [3]): 84.6%
- % Inhibition Antagonist GLP-1 (GLP-1 receptor [4]): 7.5%

Structure (SMILES): C[C@H](C(=O)N(C)CCC(Oc1ccc(C(F)(F)F)cc1)c1ccccc1)c1cccc(C(=O)c2ccccc2)c1 (stereo partly shown) [Compound 14]
- activation at 1 µM (CB1 receptor [1]): 1.2%
- activation at 1 µM (GLP-1 receptor [2]): -2.4%
- inhibition at 1 µM (CB1 receptor [3]): 56.6%
- inhibition at 1 µM (GLP-1 receptor [4]): 17.2%

Structure (SMILES): O=C(c1ccccc1)c1ccc2n1CCC2C(=O)NCC[C@@H](Oc1ccc(C(F)(F)F)cc1)c1ccccc1 (stereo partly shown) [Compound 5a]
- activation at 1 µM (CB1 receptor [1]): 0.3%
- activation at 1 µM (GLP-1 receptor [2]): 0.4%
- inhibition at 1 µM (CB1 receptor [3]): 48.7%
- inhibition at 1 µM (GLP-1 receptor [4]): -6.3%

Structure (SMILES): CC(C(=O)N(C)CC[C@@H](Oc1ccc(C(F)(F)F)cc1)c1ccccc1)c1ccc(C(F)(F)F)cc1 (stereo partly shown) [Compound 33a]
- % Activation Agonist CB1 (CB1 receptor [1]): −0.3%
- % Activation Agonist GLP-1 (GLP-1 receptor [2]): 0.9%
- % Inhibition Antagonist CB1 (CB1 receptor [3]): 90.7%
- % Inhibition Antagonist GLP-1 (GLP-1 receptor [4]): 11.4%

Structure (SMILES): C[C@H](C(=O)N(C)CC[C@@H](Oc1ccc(C(F)(F)F)cc1)c1ccccc1)c1ccc(C(F)(F)F)cc1 [Compound 33d]
- activation at 1 µM (CB1 receptor [1]): 1.4%
- activation at 1 µM (GLP-1 receptor [2]): 0.6%
- inhibition at 1 µM (CB1 receptor [3]): 82.8%
- inhibition at 1 µM (GLP-1 receptor [4]): 11.4%

Structure (SMILES): CC(C)Cc1ccc(C2(C(=O)N(C)CC[C@H](Oc3ccc(C(F)(F)F)cc3)c3ccccc3)CCC2)cc1 [Compound 30b]
- % Activation Agonist CB1 (CB1 receptor [1]): −0.8%
- % Activation Agonist GLP-1 (GLP-1 receptor [2]): −3.4%
- % Inhibition Antagonist CB1 (CB1 receptor [3]): 48.3%
- % Inhibition Antagonist GLP-1 (GLP-1 receptor [4]): 9.7%

Structure (SMILES): C[C@@H](C(=O)N(C)CC[C@@H](Oc1ccc(C(F)(F)F)cc1)c1ccccc1)c1ccc(C(F)(F)F)cc1 [Compound 33c]
- activation at 1 µM (CB1 receptor [1]): -0.9%
- activation at 1 µM (GLP-1 receptor [2]): 0.8%
- inhibition at 1 µM (CB1 receptor [3]): 80.1%
- inhibition at 1 µM (GLP-1 receptor [4]): 0.2%

Structure (SMILES): COc1ccc2c(c1)c(CC(=O)N(C)CCC(Oc1ccc(C(F)(F)F)cc1)c1ccccc1)c(C)n2C(=O)c1ccc(Cl)cc1 (stereo not shown) [Compound 15]
- activation at 1 µM (CB1 receptor [1]): 0%
- activation at 1 µM (GLP-1 receptor [2]): -0.2%
- inhibition at 1 µM (CB1 receptor [3]): 34.4%
- inhibition at 1 µM (GLP-1 receptor [4]): -5.1%

Structure (SMILES): CC(C)Cc1cccc(C(C)C(=O)N(C)CC[C@@H](Oc2ccc(C(F)(F)F)cc2)c2ccccc2)c1 (stereo partly shown) [Compound 35a]
- activation at 1 µM (CB1 receptor [1]): -1%
- activation at 1 µM (GLP-1 receptor [2]): -0.9%
- inhibition at 1 µM (CB1 receptor [3]): 80.5%
- inhibition at 1 µM (GLP-1 receptor [4]): 7.7%

Structure (SMILES): CCc1ccc(C(C)C(=O)N(C)CC[C@H](Oc2ccc(C(F)(F)F)cc2)c2ccccc2)cc1 (stereo partly shown) [Compound 34b]
- activation at 1 µM (CB1 receptor [1]): -1.9%
- activation at 1 µM (GLP-1 receptor [2]): 0.2%
- inhibition at 1 µM (CB1 receptor [3]): 76.4%
- inhibition at 1 µM (GLP-1 receptor [4]): 1.6%

Structure (SMILES): C[C@H]1CCN(C(C(=O)NCC[C@@H](Oc2ccc(C(F)(F)F)cc2)c2ccccc2)c2nc(-c3ccc(C(F)(F)F)cc3)no2)C[C@@H]1COc1ccc(C(F)(F)F)cc1 (stereo partly shown) [Compound 17]
- % Activation Agonist CB1 (CB1 receptor [1]): 8.6%
- % Activation Agonist GLP-1 (GLP-1 receptor [2]): 9.4%

Structure (SMILES): CC(C)Cc1ccc(CC(=O)N(C)CC[C@H](Oc2ccc(C(F)(F)F)cc2)c2ccccc2)cc1 [Compound 32b]
- % Activation Agonist CB1 (CB1 receptor [1]): 2.1%
- % Activation Agonist GLP-1 (GLP-1 receptor [2]): −1.8%
- % Inhibition Antagonist CB1 (CB1 receptor [3]): 23.0%
- % Inhibition Antagonist GLP-1 (GLP-1 receptor [4]): −0.8%

Structure (SMILES): CC(C)Cc1ccc(C2(C(=O)N(C)CC[C@H](Oc3ccc(C(F)(F)F)cc3)c3ccccc3)CC2)cc1 [Compound 36b]
- activation at 1 µM (CB1 receptor [1]): -1.1%
- activation at 1 µM (GLP-1 receptor [2]): 0.5%
- inhibition at 1 µM (CB1 receptor [3]): 15.5%
- inhibition at 1 µM (GLP-1 receptor [4]): 5.5%

Structure (SMILES): O=C(Cc1nc(-c2ccc(C(F)(F)F)cc2)no1)NCC[C@@H](Oc1ccc(C(F)(F)F)cc1)c1ccccc1 [Compound 23]
- % Activation Agonist CB1 (CB1 receptor [1]): 7.8%
- % Activation Agonist GLP-1 (GLP-1 receptor [2]): 11.9%

Structure (SMILES): C[C@@H]1CCN(C(C(=O)NCC[C@@H](Oc2ccc(C(F)(F)F)cc2)c2ccccc2)c2nc(-c3ccc(C(F)(F)F)cc3)no2)C[C@@H]1COc1ccc(C(F)(F)F)cc1 (stereo partly shown) [Compound 18]
- % Activation Agonist CB1 (CB1 receptor [1]): 6.2%
- % Activation Agonist GLP-1 (GLP-1 receptor [2]): 20.6%
